Experimental data: patent US20130225524A1, “Chemical Compounds” (priority 2010, published 2013)
Structures can show the parent of a compound that is named as a salt.

Molecular target: lactate dehydrogenase A (LDH-A) (Homo sapiens, UniProt P00338)
Experiment: biochemical
Protocol: Assay buffer (50 mM potassium phosphate, pH 7.0, 50 mM NaCl, 0.25 mM CHAPS, 0.0025% BSA) is added to one column of a standard assay plate stamped with DMSO solutions of test compounds. A solution of LDH-A and NAD+ (final concentrations: 300 pM LDH-A and 150 uM NAD+) in assay buffer is added to remaining plate wells containing DMSO solutions of test compounds and DMSO only control wells and the mixtures incubated for 10 min at room temperature. A solution of lactate, resazurin, diaphorase (final concentrations: 2 mM lactate, 6.25 uM resazurin, 0.4 U/mL diaphorase) in assay buffer is added to all wells and the mixtures incubated for 30 min at room temperature. Stop solution (2 uL, components: assay buffer and 25 mM oxamate) is added to each well and the fluoresecence intensity increase (FLINT) measured at 590 nm on a ViewLux®imager.

COc1ncc(-c2ccc3c(Nc4cc(C(=O)O)cc(C(C)C(C)C)c4)c(C(N)=O)cnc3c2)c(OC)n1 (stereo not shown) [Example 60, 3-({3-(aminocarbonyl)-7-[2,4-bis(methyloxy)-5-pyrimidinyl]-4-quinolinyl}amino)-5-(1,2-dimethylpropyl)benzoic acid, acetate salt] was tested, and the IC50 was 0.0631 µM.
